Structures can show the parent of a compound that is named as a salt.
Key:
[1] = target: T1, GAA (Homo sapiens, UniProt P10253); assay: rhGAA enzyme inactivation in whole blood at 37° C.; type: in vitro ADME; parameters: purchased Genzyme Corp; host or cells: Chinese hamster ovary cell line; conditions: for enzyme inactivated: whole blood 37° C., no 1-DNJ-HCl
Method: Aliquots were collected at 0, 2, 4, 8 and 24 hrs and centrifuged to obtain plasma. These plasma samples were then diluted in potassium acetate buffer (pH 4.0) and assayed for GAA activity using the 4-methylumbeliferyl-α-glucose (4-MUG) fluorogenic substrate. The measured GAA activity for individual samples at each time point was normalized to the 0 hr and expressed as % of initial activity. Data from 4 independent experiments were analyzed to obtain the mean (and standard deviation) and plotted versus time to assess the loss of enzyme activity over this time course.
Aliquots were collected at 0, 3 and 6 hrs and centrifuged to obtain plasma. These plasma samples were then diluted in potassium acetate buffer (pH 4.0) and assayed for GAA activity using the 4-methylumbeliferyl-α-glucose (4-MUG) fluorogenic substrate. The measured GAA activity for individual samples at each time point was normalized to the 0 hr and expressed as % of initial activity.
Moreover, since Myozyme® has a long plasma half-life (reported to be more than 3 hrs), there is a high probability that an appreciable amount of the enzyme remains in the circulation many hours after the infusion that would also be prone to inactivation.
Based on human plasma PK data, these concentrations are readily obtainable in the clinic.

[2] = target: T2, recombinant human GAA (Myozyme®) (Homo sapiens, UniProt P10253); assay: SYPRO Orange thermal stability assay; type: binding
T2 construct: purchased Genzyme Corp; host or cells: Chinese hamster ovary cell line
Method: The thermal stability assay utilizes heat to induce protein denaturation, which is monitored using a SYPRO Orange dye that fluoresces upon binding to hydrophobic amino acids (which are not exposed in a folded protein).
Denaturation is monitored using a SYPRO Orange dye that fluoresces upon binding to hydrophobic amino acids (which are not exposed in a folded protein).
The thermal stability was performed at pH 7.4 for two formulations, which corresponds to the pH of the ER.

[3] = target: T1, GAA; assay: GAA levels in cell lines derived from late-onset Pompe patients; type: cell-based; parameters: endogenous in cells; conditions: cell lines with IVS 1 (−13 T>G) splicing mutation
[4] = Aggregation of 25 mg/mL Myozyme® at pH 7.4 and 37° C. (Example 10); type: physicochemical; conditions: 1 mM DNJ, PBS pH 7.4, 4 weeks at 37° C.
Method: Aggregation was assessed after a 4 week incubation period.
A liquid formulation comprising DNJ and GAA was prepared by dissolving DNJ in water to achieve a concentration of 10 mM DNJ. GAA was reconstituted in 1.8 ml water, and dialyzed overnight in phosphate buffered-saline (pH 7.4). […] of DNJ (10 mM) was then be added to 400 microliters of GAA, such that the GAA was at a concentration of 25 mg/ml.
25 mg/mL Myozyme® was incubated with or without 1 mM DNJ in phosphate-buffered saline at pH 7.4. Aggregation of Myozyme® was assessed after incubation for 4 weeks at 37° C.

[5] = Circulating rhGAA after subcutaneous DNJ co-formulated with Myozyme® (FIG. 14); type: in vivo; conditions: DNJ co-formulated with 20 mg/kg Myozyme® vs Myozyme® without DNJ
[6] = test system: GAA KO mice; assay: Tissue glycogen reduction after repeat IV Myozyme® in GAA KO mice; type: in vivo, mouse; conditions: 20 mg/kg IV bolus, 4 administrations at two-week intervals, 14 days after last
Source text: (§1) Mice were euthanized 3 days after the last administration for tissue GAA activity measurement and 14 days after the administration for glycogen measurement. Data was compared with uptake (on day 3) and glycogen reduction (on day 14) of historical Lumizyme® IV alone study. Tissue samples included heart, diaphragm, tongue, ventral skin (non-injection site), skin from the hind limb injection site, skin from the shoulder SQ injection site, left and right limb muscles (biceps, triceps, quadriceps, soleus and gastrocnemius). GAA activities in tissues were determined using a 4-MUG fluorogenic substrate assay. Glycogen levels were determined using a glycogen assay (see Example 9 for method).

[7] = test system: GAA KO mice; assay: Tissue glycogen reduction in GAA KO mice, Myozyme® IV with or without oral 1-DNJ-HCl (Example 9); type: in vivo, mouse
Method: Twelve-week old male GAA KO mice were administered a single dose of Myozyme® (40 mg/kg) via bolus tail vein injection every other week for 8 weeks. To prevent anaphylaxis, before the third and fourth Myozyme® injection, diphenhydramine (10 mg/kg intraperitoneally) was administered 10 min before Myozyme® injection. […] Mice were euthanized 14 days after the last Myozyme® administration.
Glycogen levels in heart, diaphragm, soleus, and quadriceps were then measured. […] Briefly, homogenates were prepared by homogenizing ˜50 mg tissue for 3-5 seconds on ice with a microhomogenizer in 200 μL deionized water. Supernatants were heat denatured (99° C. for 10 min) to remove endogenous amyloglucosidase activity. Denatured lysates (4 μL) were then analyzed in duplicate by addition of 36 μL water with and without 10 μL of 800 U/mL of amyloglucosidase (Sigma Aldrich, St. Louis, Mo.) and incubated for 1 hour at 50° C. The reaction was stopped by inactivation at 100° C. for 10 min. Finally, 200 μL of glucose reagent (Sigma) was added absorbance read at 340 nm on Spectramax. A standard curve ranging from 5 μg/mL to 400 μg/mL Type III rabbit liver glycogen (Sigma) was run each day for conversion of absorbance to absolute glycogen units. Simultaneously, the amount of protein was determined in tissue homogenates using the Micro BCA Protein Assay (Pierce, Rockford, Ill.) following the manufacturer's instructions. The glycogen content of each sample was normalized to protein, and data were finally expressed as micrograms of glycogen per milligram of protein (μg/mg protein).

[8] = test system: GAA KO mice; assay: Tissue rhGAA activity after repeat IV Myozyme® in GAA KO mice; type: in vivo, mouse; conditions: 20 mg/kg IV bolus, 4 doses at 2 week intervals, 3 days after last dose
Source text: as §1
For both studies, the enzyme activities in tissues were assessed three days after the last (fourth) administration.

[9] = rat, iv
Method: Four groups of rats were administered one of the following dosing regimens:
(2) 10 mg/kg of rhGAA+Water;

OC[C@H]1NC[C@H](O)[C@@H](O)[C@@H]1O [1-DNJ-HCl, 1-deoxynojirimycin hydrochloride]
loss of rhGAA activity ([1]; 2.5 μM 1-DNJ-HCl, whole blood, 6-hr time course): ~20%
rhGAA activity in whole blood ([1]; 50 μM 1-DNJ-HCl, 37° C., up to 24 hrs): remained completely active throughout the study
thermal stability of rhGAA (heat to denature) ([2]; 100 μM 1-DNJ-HCl, pH 7.4, vs formulation without ASSC): required significantly more heat to denature
GAA thermostability (melting temperature) ([2]; Myozyme® plus 1, 10, 100 μM 1-DNJ-HCl): increases GAA thermostability
GAA levels [3]: increased GAA levels alone and in combination with hrGAA

OC[C@H]1NC[C@H](O)[C@@H](O)[C@@H]1O [DNJ, 1-deoxynojirimycin]
aggregation of Myozyme® [4]: reduced aggregation of Myozyme®
circulating levels of rhGAA [5]: increased the circulating levels of rhGAA

Myozyme®: alglucosidase alfa, recombinant human acid α-glucosidase from Genzyme Corporation
Glycogen reduction (% of untreated) ([6]; Biceps): 5%
Glycogen reduction (% of untreated) ([6]; Diaphragm): 19%
Glycogen reduction (% of untreated) ([6]; Gastrocnemius): 15%
Glycogen reduction (% of untreated) ([6]; Heart): 51%
Glycogen reduction (% of untreated) ([6]; Quadriceps): 8%
Glycogen reduction (% of untreated) ([6]; Skin, 20 mg/kg): No reduction
Glycogen reduction (% of untreated) ([6]; Skin, listed as rhGAA (Myozyme), 20 mg/kg): No
Glycogen reduction (% of untreated) ([6]; Tongue): 54%
Glycogen reduction (% of untreated) ([6]; Triceps): 4%
Glycogen reduction relative to untreated mice ([7]; diaphragm, same regimen): 41±4%
Glycogen reduction relative to untreated mice ([7]; heart, Myozyme® 40 mg/kg IV every other week for 8 weeks, +/- 30 mg/kg oral 1-DNJ-HCl): 93±1%
Glycogen reduction relative to untreated mice ([7]; quadriceps, same regimen): 18±4%
Glycogen reduction relative to untreated mice ([7]; soleus, same regimen): 69±3%
rhGAA activity uptake ([8]; Biceps): 10.1 nmol/mg/h
rhGAA activity uptake ([8]; Diaphragm): 7.1 nmol/mg/h
rhGAA activity uptake ([8]; Gastrocnemius): 17.9 nmol/mg/h
rhGAA activity uptake ([8]; Heart): 1.8 nmol/mg/h
rhGAA activity uptake ([8]; Quadriceps): 6.9 nmol/mg/h
rhGAA activity uptake ([8]; Skin): 27.1 nmol/mg/h
rhGAA activity uptake ([8]; Soleus, 20 mg/kg): 8.0 nmol/mg/h
rhGAA activity uptake ([8]; Soleus, listed as rhGAA (Myozyme), 20 mg/kg): 8 nmol/mg/h
rhGAA activity uptake ([8]; Tongue): 12.4 nmol/mg/h
rhGAA activity uptake ([8]; Triceps): 3.9 nmol/mg/h

rhGAA: recombinant human acid α-glucosidase (e.g., Myozyme®)
enzyme inactivated ([1]; by 4 hrs): approximately 40%
enzyme inactivated ([1]; by 8 hrs): ~70%
enzyme inactivated ([1]; by 24 hrs): ~100%
in vivo half life of rhGAA [9]: 1.4 ± 0.2 h

From patent US9303249B2, “High concentration α-glucosidase compositions for the treatment of Pompe disease” (Amicus Therapeutics, Inc., priority 2012, dated 2016)
